Laboratory results from US20230174608A1, “Polypeptide Derivative Having Dual Receptor Agonistic Action and Use Thereof” (TIANJIN INSTITUTE OF PHARMACEUTICAL RESEARCH CO., LTD., priority 2020, published 2023).
Marks after values point to notes of the source that are not given here. Where a SMILES comes first, the peptide text is derived from it.

Tests used:
[1] = tested on: diet-induced obesity (DIO) mice; assay: Obese (DIO) model mice, 23 days of successive administration; format: in vivo, C57BL/6J Gpt mice; conditions: for Fasting blood glucose (mmol/L) before the last administration: fasted 16 h; for Fasting blood glucose (mmol/L) before the last administration / TC (total cholesterol) / TG (triglycerides): n=5; for Weight decreasing rate: 30 nmol/kg s.c. every day, without fasting before the last administration compared to day 1; for Examination of liver pathological section: HE stain, 2 animals; for TC (total cholesterol) / TG (triglycerides): after 23 days of administration
Source text: C57BL/6J Gpt mice (purchased from GemPharmatech (Jiangsu) Co., Ltd.) (6-8-week-old) were fed with H10060 high-fat diet (purchased from Beijing HFK Bioscience Co., Ltd.) to obtain diet-induced obesity (DIO) models, mice in a blank control group (n=5) were fed with standard diets, and all the mice were fed for 11 weeks after being purchased. One day before the first administration, the mice in the model group were randomly divided into 5 groups according to their weights (within a range of 39.5-49.5 g), i.e., a model control group, a positive control group, and test compound groups (dgc005, dgc016, and dgc020), respectively, 5 mice in each group, which were administered every day by subcutaneous injection. Saline was subcutaneously injected in the blank control group and the model control group every day. The administration was performed for 23 days. The positive control drug and the test compounds were administered at a dose of 30 nmol/kg, and the administration volume for each group was 0.005 mL/g weight. The mice were weighed before each administration, and 72-h food intake was weighed every three days. The mice fasted for 16 h before the last administration, fasting blood glucose levels were determined, blood was sampled from the orbital venous plexus to determine triglycerides and total cholesterol, and the liver was taken out for pathological section observation.
The liver of each C576L/6 mouse in the groups was fixed with 12% formaldehyde and prepared into a specimen, and the tissue block was repaired, dehydrated with graded alcohol, embedded in paraffin, stained with HE, and examined under a light microscope.

[2] = tested on: glucose loaded normal mice; assay: Glucose loading test on normal mice after single administration; format: in vivo, Kunming mice; conditions: for Blood glucose reduction rate (%): after glucose loading, versus model control group; for Blood glucose level after glucose loading: glucose 2.5 g/kg intragastric 60 min after administration, measured 30 min after loading; for Blood glucose level after glucose loading / Fasting blood glucose level: n=5; for Fasting blood glucose level: normal mice fasted 6 h, 30 nmol/kg group
Procedure: The hypoglycemic action of each compound of Example 1 was assessed by a glucose loading test on normal mice after single administration.
Method: Kunming mice (male, with a weight of 20-22 g) were acclimated in a barrier environment animal room for 3 days, divided into a blank control group, a model control group, a positive control group, and test compound groups, 5 mice in each group, and fasted for 6 h. Saline was administered to each mouse in the blank control group and the model control group, the compounds and a positive control drug were respectively administered to each mouse in the test compound groups and the positive control group at a dose of 30 nmol/kg, and the positive control drug was semaglutide. 60 min after administration, glucose was intragastrically administered to each mouse in the model control group, the positive control group, and the test compound groups at a dose of 2.5 g/kg (0.01 mL·g^−1 weight), distilled water was administered to each mouse in the blank control group, and blood glucose levels were determined 30 min after glucose loading.

[3] = tested on: diet-induced obesity (DIO) mice; assay: DIO mice, weight and blood glucose after multiple administrations at different doses; format: in vivo, C57BL/6N mice; conditions: for Fasting blood glucose (mmol/L) before the last administration / Blood glucose level (mmol/L) 0.5 h after glucose loading / Glycemic load reduction rate: Day 22; for Fasting blood glucose (mmol/L) before the last administration: fasted 16 h; for Blood glucose level (mmol/L) 0.5 h after glucose loading: glucose 1 g/kg intragastric 30 min after administration; for Glycemic load reduction rate: versus model control group; for Reduction rate of weight without fasting on day 21 compared to day 0: n=5
Source text: 40 C57BL/6N mice were purchased from Beijing Vital River Laboratory Animal Technology Co., Ltd. Mice in a model group (n=35) were fed with H10060 high-fat diets to obtain diet-induced obesity (DIO) models, mice in a blank control group (n=5) were fed with standard diets, and all the mice were fed for 36 weeks. On the day of the first administration, the mice in the model group were randomly divided into 7 groups according to their weights (within a range of 45-60 g), i.e., a model control group, positive control groups (semaglutide at doses of 10 nmol/kg and 30 nmol/kg, respectively), and test compound groups (dgc005 and dgc016 at doses of 10 nmol/kg and 30 nmol/kg, respectively), 5 mice in each group. The positive control drug and the test compounds were respectively subcutaneously injected into each mouse in the positive control groups and the test compound groups every day, saline was subcutaneously injected into each mouse in the blank control group and the model control group, and the administration was performed for 22 days (the administration volume for each group was 0.005 mL/g weight). The mice were weighed before each administration, and 72-h food intake was weighed every three days. The mice fasted for 16 h before the last administration, and 30 min after administration, a glucose solution (1 g/kg, the administration volume was 0.01 mL/g weight) was intragastrically administered to each mouse for glucose tolerance test. Blood glucose levels were determined 0.5 h after glucose loading.

GLP-1R = target: T1, GLP-1R (Homo sapiens, UniProt P43220); assay: GLP-1 receptor-mediated cAMP production in vitro; format: cell-based; conditions: HEK293 cell line stably expressing GLP-1R
T1 construct: expressed in transfected cells
T1 sequence (P43220 24-463, species assumed): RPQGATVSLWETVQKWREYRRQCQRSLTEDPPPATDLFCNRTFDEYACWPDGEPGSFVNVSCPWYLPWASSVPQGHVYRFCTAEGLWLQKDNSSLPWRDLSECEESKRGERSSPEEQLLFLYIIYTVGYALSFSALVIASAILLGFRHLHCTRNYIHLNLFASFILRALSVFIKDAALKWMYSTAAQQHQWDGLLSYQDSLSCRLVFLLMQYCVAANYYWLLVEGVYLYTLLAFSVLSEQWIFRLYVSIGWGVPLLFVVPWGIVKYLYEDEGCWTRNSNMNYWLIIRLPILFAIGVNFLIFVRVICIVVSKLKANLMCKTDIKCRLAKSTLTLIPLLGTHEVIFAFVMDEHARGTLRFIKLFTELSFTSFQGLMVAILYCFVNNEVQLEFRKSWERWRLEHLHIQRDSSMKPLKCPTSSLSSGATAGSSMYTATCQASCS
Procedure: (§1) HEK293 cell line stably expressing GLP-1R or GCGR was used for screening GLP-1R and GCGR agonist.
(§2) Preparation of test sample: each compound was prepared into 100 μM stock solution, and then gradually diluted to working concentrations of 1 μM, 100 nM, 10 nM, 1 nM, 10^−1 nM, 10^−2 nM, 10^−3 nM, and H2O.
(§3) 1) Each compound to be tested was mixed with a serum-free medium (containing 0.1% BSA and 0.5 mM IBMX) to obtain a solution at a concentration 2 times the working concentration.
(§4) 2) The cells were digested, suspended in a serum-free medium (containing 0.5 mM IBMX), counted, and placed in a 384-well plate at a density of 1,000 cells/5 μL/well, then 5 μL of the testing compound was added, and the plate was placed in dark for reaction for 30 min.
(§5) 3) After the reaction was completed, a substrate for detecting cAMP was added, and the plate was placed in dark for reaction at the room temperature for 60 min.
(§6) 4) After the reaction was completed, the plate was placed on the Envision2104 multifunctional microplate reader for detection, and the ratio of optical density (OD) values at 665 nm and 615 nm were read out.

GCGR = target: T2, GCGR (Homo sapiens, UniProt P47871); assay: GC receptor-mediated cAMP production in vitro; format: cell-based; conditions: HEK293 cell line stably expressing GCGR
T2 construct: expressed in transfected cells
T2 sequence (P47871 26-477, species assumed): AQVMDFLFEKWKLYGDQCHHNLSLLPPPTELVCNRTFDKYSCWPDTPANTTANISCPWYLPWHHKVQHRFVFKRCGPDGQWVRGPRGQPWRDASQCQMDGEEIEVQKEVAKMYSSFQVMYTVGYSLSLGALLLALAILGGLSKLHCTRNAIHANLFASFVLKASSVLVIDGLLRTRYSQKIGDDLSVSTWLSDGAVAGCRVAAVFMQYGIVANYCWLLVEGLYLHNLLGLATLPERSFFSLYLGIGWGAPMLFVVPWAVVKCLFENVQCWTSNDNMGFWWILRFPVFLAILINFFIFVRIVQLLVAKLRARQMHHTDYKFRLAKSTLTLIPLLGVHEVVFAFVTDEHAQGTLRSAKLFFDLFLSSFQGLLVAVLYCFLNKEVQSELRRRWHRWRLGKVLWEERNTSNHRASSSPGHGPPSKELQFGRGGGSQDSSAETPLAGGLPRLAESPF
Procedure: as §1, §2, §3, §4, §5, §6

[4] = day 4 of administration, 30 nmol/kg s.c. daily
[5] = day 7 of administration, 30 nmol/kg s.c. daily
[6] = day 10 of administration, 30 nmol/kg s.c. daily
[7] = day 13 of administration, 30 nmol/kg s.c. daily

CCCCCCCCCCCCCCCC(=O)N[C@@H](CCC(=O)N[C@@H](CCC(=O)NCCCC[C@H](NC(=O)[C@H](C)NC(=O)[C@H](C)NC(=O)[C@H](CCCNC(=N)N)NC(=O)[C@H](CCC(=O)O)NC(=O)[C@H](CCC(=O)O)NC(=O)[C@H](CC(C)C)NC(=O)[C@H](Cc1ccc(O)cc1)NC(=O)[C@H](CCCCN)NC(=O)[C@H](CO)NC(=O)[C@H](Cc1ccc(O)cc1)NC(=O)[C@H](CC(=O)O)NC(=O)[C@H](CO)NC(=O)[C@@H](NC(=O)[C@H](Cc1ccccc1)NC(=O)[C@@H](NC(=O)CNC(=O)[C@H](CCC(N)=O)NC(=O)C(C)(C)NC(=O)[C@@H](N)Cc1c[nH]cn1)[C@@H](C)O)[C@@H](C)O)C(=O)N[C@@H](CCC(=O)O)C(=O)N[C@@H](Cc1ccccc1)C(=O)N[C@H](C(=O)N[C@@H](C)C(=O)N[C@@H](Cc1c[nH]c2ccccc12)C(=O)N[C@@H](CC(C)C)C(=O)N[C@@H](CCC(=O)O)C(=O)N[C@@H](C)C(=O)NCC(=O)NCC(N)=O)[C@@H](C)CC)C(=O)O)C(=O)O [dgc005] (HELM PEPTIDE1{H.[Aib].Q.G.T.F.T.S.D.Y.S.K.Y.L.E.E.R.A.A.K.E.F.I.A.W.L.E.A.G.G.[am]}|PEPTIDE2{[CCCCCCCCCCCCCCCC(=O)[*:2]].[gGlu].[gGlu]}$PEPTIDE1,PEPTIDE2,20:R3-3:R2$$$V2.0; N-terminus assumed)
Fasting blood glucose (mmol/L) before the last administration ([1]; 30 nmol/kg s.c. daily, 23 days): 4.60 ± 0.34 mmol/L | Weight decreasing rate [1]: 27% | Effect on total cholesterol (in words) ([1]; 23 days, 30 nmol/kg s.c. daily): reduced total cholesterol (TC) in a certain extent | Effect on triglycerides (in words) ([1]; 23 days, 30 nmol/kg s.c. daily): significantly reduce triglycerides (TGs) | Examination of liver pathological section ([1]; 23 days, 30 nmol/kg s.c. daily): no obvious pathological changes are seen in portal areas and interstitium | TC (total cholesterol) ([1]; 30 nmol/kg s.c. daily): 3.07 ± 0.50 mmol/L | TG (triglycerides) ([1]; 30 nmol/kg s.c. daily): 0.58 ± 0.10**^#ΔΔ mmol/L | 72-h food intake [1, 4]: 2.50 g/mouse | 72-h food intake [1, 5]: 3.80 g/mouse | 72-h food intake [1, 6]: 4.20 g/mouse | 72-h food intake [1, 7]: 4.60 g/mouse | Blood glucose reduction rate (%) ([2]; 30 nmol/kg single dose): 60.59% | Blood glucose level after glucose loading ([2]; 30 nmol/kg single dose): 6.70 ± 1.88**^ mmol/L | Inhibition of the rise of blood glucose after glucose loading (in words) ([2]; 30 nmol/kg single dose, normal mice): equivalent to that of the positive control drug | Fasting blood glucose level [2]: 3.96 ± 0.62 mmol/L | Fasting blood glucose (mmol/L) before the last administration ([3]; 10 nmol/kg s.c. daily): 5.34 ± 1.20 mmol/L | Blood glucose level (mmol/L) 0.5 h after glucose loading ([3]; 10 nmol/kg s.c. daily): 7.52 ± 0.77 mmol/L | Glycemic load reduction rate ([3]; 10 nmol/kg s.c. daily): 28.52 | Reduction rate of weight without fasting on day 21 compared to day 0 ([3]; 10 nmol/kg s.c. every day): 18.41% | Fasting blood glucose (mmol/L) before the last administration ([3]; 30 nmol/kg s.c. daily): 4.22 ± 2.13 mmol/L | Blood glucose level (mmol/L) 0.5 h after glucose loading ([3]; 30 nmol/kg s.c. daily): 7.82 ± 1.09 mmol/L | Glycemic load reduction rate ([3]; 30 nmol/kg s.c. daily): 25.66 | Reduction rate of weight without fasting on day 21 compared to day 0 ([3]; 30 nmol/kg s.c. every day): 21.39% | EC50 (GLP-1R): 0.484 nM | EC50 (GCGR): 1.16 nM

CCCCCCCCCCCCCCCC(=O)N[C@@H](CCC(=O)N[C@@H](CCC(=O)NCCCC[C@H](NC(=O)[C@H](C)NC(=O)[C@H](C)NC(=O)[C@H](CCCNC(=N)N)NC(=O)[C@H](CCC(=O)O)NC(=O)[C@H](CCC(=O)O)NC(=O)[C@H](CC(C)C)NC(=O)[C@H](Cc1ccc(O)cc1)NC(=O)[C@H](CCCCN)NC(=O)[C@H](CO)NC(=O)[C@H](Cc1ccc(O)cc1)NC(=O)[C@H](CC(=O)O)NC(=O)[C@H](CO)NC(=O)[C@@H](NC(=O)[C@H](Cc1ccccc1)NC(=O)[C@@H](NC(=O)CNC(=O)[C@H](CCC(N)=O)NC(=O)C(C)(C)NC(=O)[C@@H](N)Cc1c[nH]cn1)[C@@H](C)O)[C@@H](C)O)C(=O)N[C@@H](CCC(=O)O)C(=O)N[C@@H](Cc1ccccc1)C(=O)N[C@H](C(=O)N[C@@H](C)C(=O)N[C@@H](Cc1c[nH]c2ccccc12)C(=O)N[C@@H](CC(C)C)C(=O)N[C@@H](CCC(=O)O)C(=O)NCC(=O)N[C@@H](CCC(=O)O)C(=O)NCC(N)=O)[C@@H](C)CC)C(=O)O)C(=O)O [dgc020] (HELM PEPTIDE1{H.[Aib].Q.G.T.F.T.S.D.Y.S.K.Y.L.E.E.R.A.A.K.E.F.I.A.W.L.E.G.E.G.[am]}|PEPTIDE2{[CCCCCCCCCCCCCCCC(=O)[*:2]].[gGlu].[gGlu]}$PEPTIDE1,PEPTIDE2,20:R3-3:R2$$$V2.0; N-terminus assumed)
Fasting blood glucose (mmol/L) before the last administration ([1]; 30 nmol/kg s.c. daily, 23 days): 4.78 ± 0.46 mmol/L | Weight decreasing rate [1]: 25.0% | Examination of liver pathological section ([1]; 23 days, 30 nmol/kg s.c. daily): no obvious pathological changes are seen in portal areas and interstitium | TC (total cholesterol) ([1]; 30 nmol/kg s.c. daily): 3.62 ± 0.84 mmol/L | TG (triglycerides) ([1]; 30 nmol/kg s.c. daily): 0.88 ± 0.28^Δ mmol/L | 72-h food intake [1, 4]: 3.50 g/mouse | 72-h food intake [1, 5]: 4.50 g/mouse | 72-h food intake [1, 6]: 5.70 g/mouse | 72-h food intake [1, 7]: 5.50 g/mouse | Blood glucose reduction rate (%) ([2]; 30 nmol/kg single dose): 42.24% | Blood glucose level after glucose loading ([2]; 30 nmol/kg single dose): 9.82 ± 2.06 mmol/L | Fasting blood glucose level [2]: 4.24 ± 0.63 mmol/L | EC50 (GLP-1R): 1.51 nM | EC50 (GCGR): 0.883 nM
